Results published in ChEMBL document CHEMBL1149539, “Design, synthesis, and biological activity of folate receptor-targeted prodrugs of thiolate histone deacetylase inhibitors” (Bioorg Med Chem Lett, 2007).
Active and inactive are the calls of the source. The calls are words filed in the database; no cut-off is given here.

Key:
[1] = target: Histone deacetylase; experiment: Inhibition of HDAC in HeLa cells in presence of DTT after 30 mins by fluorescent activity assay; format: cell-based, Homo sapiens
[2] = target: Histone deacetylase; experiment: Inhibition of HDAC in HeLa cells after 30 mins by fluorescent activity assay; format: cell-based, Homo sapiens
[3] = test system: MCF7; experiment: Growth inhibition of human MCF7 cells after 72 hrs by Alamar Blue assay; format: functional, cell-based
[4] = test system: MCF7; experiment: Increase in accumulation of acetylated histone H4 in human MCF7 cells in presence of 100 uM folic acid after 14 hrs by Western blot analysis; format: functional, cell-based
[5] = test system: MCF7; experiment: Increase in accumulation of acetylated histone H4 in human MCF7 cells after 14 hrs by Western blot analysis; format: functional, cell-based

IC50 [1] [µM] | IC50 [2] [µM] | Compound | Activity [3] | Activity [4] | Activity [5]
3 | – | NC1=NC(=O)C2N=C(CNc3ccc(C(=O)N[C@@H](CCC(=O)NCCOCCOCCSSCCCCCCC(=O)Nc4ncc(-c5ccccc5)s4)C(=O)O)cc3)C=NC2=N1 (some centres not stated) | – | – | –
– | 21 | NC1=NC(=O)C2N=C(CNc3ccc(C(=O)N[C@@H](CCC(=O)NCCCCCCS)C(=O)O)cc3)C=NC2=N1 (some centres not stated) | – | – | –
9 | – | NC1=NC(=O)C2N=C(CNc3ccc(C(=O)N[C@@H](CCC(=O)NCCCCCCSSCCCCCCNC(=O)CC[C@H](NC(=O)c4ccc(NCC5=NC6C(=O)N=C(N)N=C6N=C5)cc4)C(=O)O)C(=O)O)cc3)C=NC2=N1 (some centres not stated) | – | – | –
0.27 | – | NC1=NC(=O)C2N=C(CNc3ccc(C(=O)N[C@@H](CCC(=O)NCCSSCCCCCCC(=O)Nc4ncc(-c5ccccc5)s4)C(=O)O)cc3)C=NC2=N1 (some centres not stated) | Dose-dependent effect | inactive | Active
